Data published in patent US20250186450A1, “COMBINATION THERAPY COMPRISING DGK INHIBITORS and PD-1/PD-L1 INHIBITORS” (Incyte Corporation, priority 2023, published 2025).
“Also recorded” adds a separate entry of the source.

Assays:
[1] = system: MC38 syngeneic tumor model; test: MC38 syngeneic tumor model, DGK inhibitor plus anti-PD-1 (RMP1-14); assay type: in vivo, C57Bl/6 mice; conditions: FIGS. 9A-9B, listed as Compound 3
Procedure: The in vivo effect of combining Compound 1 plus anti-PD-1 (RMP1-14, Bio X Cell) was assessed in the MC38 (CRL-1642, ATCC, Manassas, VA) syngeneic tumor model (see FIG. 3) in 6 to 8 weeks old C57Bl/6 mice (Jackson laboratories). Compound 1 was suspended in 5% N,N-dimethylacetamide (DMAC)+50 mM Citrate buffer in 0.5% methyl cellulose for oral administration and RMP1-14 was suspended in saline for intraperitoneal administration. Briefly, the left flank of the mice was shaved the day prior to subcutaneous inoculation with 2×10^6 MC38 cells suspended in PBS. On day 7, tumor dimensions were measured by Vernier calipers, and volume estimated by the formula Volume=[L (long dimension)×W^2 (short dimension)]/2. Mice were randomized into 6 groups of 10 mice of approximate mean volume (˜160 mm^3). Tumors were measured 3 times per week for the duration of the study. Starting day 7, mice were dosed with (i) vehicle; (ii) 250 μg/mouse of RMP1-14; (iii) 10 mg/kg of Compound 1; (iv) 1 mg/kg of Compound 1; (v) 10 mg/kg of Compound 1 and 250 μg/mouse of RMP1-14; or (vi) 1 mg/kg of Compound 1 and 250 μg/mouse of RMP1-14. Compound 1 was administered orally once daily (QD) for 12 days, while RMP1-14 was dosed every 5 days (for a total of 3 doses).
The in vivo effect of combining Compound 2 plus anti-PD-1 (RMP1-14, Bio X Cell) was assessed in the MC38 (CRL-1642, ATCC, Manassas, VA) syngeneic tumor model in 6 to 8 weeks old C57Bl/6 mice (Jackson laboratories). Compound 2 was suspended in 5% N,N-dimethylacetamide (DMAC)+50 mM Citrate buffer in 0.5% methyl cellulose for oral administration and RMP1-14 was suspended in saline for intraperitoneal administration. Briefly, the left flank of the mice was shaved the day prior to subcutaneous inoculation with 2×10^6 MC38 cells suspended in PBS. On day 7, tumor dimensions were measured by Vernier calipers, and volume estimated by the formula Volume=[L (long dimension)×W^2 (short dimension)]/2. Mice were randomized into 6 groups of 10 mice of approximate mean volume (˜130 mm^3). Tumors were measured 3 times per week for the duration of the study. Starting day 7, mice were dosed with (i) vehicle; (ii) 250 μg/mouse of RMP1-14 (Anti-PD-1); (iii) 0.5 mg/kg of Compound 2 QD; (iv) 0.5 mg/kg of Compound 2 […] and 250 μg/mouse of RMP1-14; (v) 0.5 mg/kg of Compound 2 Q2D; (vi) 0.5 mg/kg of Compound 2 […] and 250 μg/mouse of RMP1-14; (vii) 1.5 mg/kg of Compound 2 QD; (viii) 1.5 mg/kg of Compound 2 QD and 250 μg/mouse of RMP1-14 (ix) 1.5 mg/kg of Compound 2 Q2D; (x) 1.5 mg/kg of Compound 2 Q2D and 250 μg/mouse of RMP1-14; (xi) 1.5 mg/kg of Compound 2 Q3D; or (xii) 1.5 mg/kg of Compound 2 Q3D and 250 μg/mouse of RMP1-14.
The in vivo effect of combining 2-(4-((2S,5R)-4-(bis(4-fluorophenyl)methyl)-2,5-dimethylpiperazin-1-yl)-1H-[1,2,4]triazolo[3,4-b]purin-1-yl)-N,N-dimethylethane-1-amine (i.e., Compound 3) plus anti-PD-1 (RMP1-14, Bio X Cell) was assessed in the MC38 (CRL-1642, ATCC, Manassas, VA) syngeneic tumor model in 6 to 8 weeks old C57Bl/6 mice (Jackson laboratories). Compound 3 was suspended in 5% N,N-dimethylacetamide (DMAC)+50 mM Citrate buffer in 0.5% methyl cellulose for oral administration and RMP1-14 was suspended in saline for intraperitoneal administration. Briefly, the left flank of the mice was shaved the day prior to subcutaneous inoculation with 2×10^6 MC38 cells suspended in PBS. On day 7, tumor dimensions were measured by Vernier calipers, and volume estimated by the formula Volume=[L (long dimension)×W^2 (short dimension)]/2. Mice were randomized into 6 groups of 10 mice of approximate mean volume (˜200 mm^3). Tumors were measured 3 times per week for the duration of the study. Starting day 7, mice were dosed with (i) vehicle; (ii) 250 μg/mouse of RMP1-14 (Anti-PD-1); (iii) 10 mg/kg of Compound 3 QD; (iv) 10 mg/kg of Compound 3 QD and 250 μg/mouse of RMP1-14; (v) 30 mg/kg of Compound 3 QD; or (vi) 30 mg/kg of Compound 3 QD and 250 μg/mouse of RMP1-14.

DGKζ = DGKζ (Homo sapiens (Human), UniProt Q13574); test: In vitro DGKζ inhibition assay (ADP-Glo); assay type: biochemical; conditions: 0.4 nM DGKζ, 30 μM ATP, 20 μM DLG
Chain of DGKζ (Q13574 whole entry): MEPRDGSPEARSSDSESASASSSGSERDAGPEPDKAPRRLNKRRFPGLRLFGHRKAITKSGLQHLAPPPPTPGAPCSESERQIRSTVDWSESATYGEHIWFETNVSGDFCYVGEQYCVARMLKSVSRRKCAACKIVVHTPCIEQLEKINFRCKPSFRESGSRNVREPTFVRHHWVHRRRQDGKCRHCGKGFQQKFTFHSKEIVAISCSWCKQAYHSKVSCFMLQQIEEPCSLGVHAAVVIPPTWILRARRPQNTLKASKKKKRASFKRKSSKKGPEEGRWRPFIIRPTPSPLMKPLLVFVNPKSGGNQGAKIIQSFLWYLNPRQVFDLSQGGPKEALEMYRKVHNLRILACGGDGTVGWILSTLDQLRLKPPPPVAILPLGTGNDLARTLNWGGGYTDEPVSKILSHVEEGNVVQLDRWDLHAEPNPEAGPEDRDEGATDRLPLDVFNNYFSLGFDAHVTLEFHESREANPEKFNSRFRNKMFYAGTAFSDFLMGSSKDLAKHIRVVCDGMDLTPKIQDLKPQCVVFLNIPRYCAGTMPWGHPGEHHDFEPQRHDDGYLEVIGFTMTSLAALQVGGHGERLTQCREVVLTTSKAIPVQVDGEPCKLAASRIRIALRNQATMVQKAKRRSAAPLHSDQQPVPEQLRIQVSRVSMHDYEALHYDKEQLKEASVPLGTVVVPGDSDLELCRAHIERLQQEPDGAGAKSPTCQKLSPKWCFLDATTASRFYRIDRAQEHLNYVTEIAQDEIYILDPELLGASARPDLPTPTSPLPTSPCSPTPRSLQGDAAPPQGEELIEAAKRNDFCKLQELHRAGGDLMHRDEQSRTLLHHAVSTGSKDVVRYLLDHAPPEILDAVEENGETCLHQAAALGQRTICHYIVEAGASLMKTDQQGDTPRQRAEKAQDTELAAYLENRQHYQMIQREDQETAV
Procedure: (§1) The DGKα and DGKζ biochemical reactions were performed using His-tagged human recombinant enzymes (Signal Chem, DGKα, #D21-10BH; DGKζ, #D30-10H)) and DLG (Dilauroyl-sn-glycerol) lipid substrate (Signal Chem, #D430-59). ADP-Glo assay was performed using ADP-Glo™ kinase Assay kit (Promega, #V9104). The reactions were carried out in assay buffer containing 40 mM Tris, pH 7.5, 0.1% CHAPS, 0.1% Prionex, 40 mM NaCl, 5 mM MgCl2, 1 mM CaCl2, and 1 mM DTT. DGKα reactions contained 0.1 nM DGKα, 50 μM ATP, and 20 μM DLG. And DGKζ reactions contained 0.4 nM DGKζ, 30 μM ATP, and 20 μM DLG.
(§2) For compound inhibition studies, 40 nL test compound in DMSO was added to wells of white polystyrene plates in 384-well (Greiner, #784075) or 1536-well format (Greiner, #782075). Compounds were added with top concentration of 2 mM with 11 point, 3-fold dilution series. Enzyme solution (contains 2×DGK enzyme concentration in 1× assay buffer) was added to the plate in 2 μL/well volume, followed by 2 μL/well of substrate solution (contains 2× concentration of ATP and DLG substrate in 1× assay buffer). Plates were then centrifuged for 1 min at 1200 RPM and sealed or lidded. For 4 μL reaction volume, test compounds were therefore diluted 100× to final top concentration of 20 μM. After 90 minute incubation, reactions were quenched by addition of 2 μL/well Promega ADP-Glo Reagent, followed by centrifugation and lidding. After 60 min incubation, 2 μL/well Promega Kinase Detection Reagent was added, plates centrifuged, and incubated for 30 min. Plates were then read using Luminescence method on BMG PHERAstar FSX plate reader. Percent inhibition was calculated and IC50s were determined using 4-parameter fit in Genedata Screener. Labcyte Echo acoustic dispenser was used for compound addition, and Formulatrix Tempest liquid handler was used for all reagent dispenses.

DGKα = DGKα (Homo sapiens (Human), UniProt P23743); test: In vitro DGKα inhibition assay (ADP-Glo); assay type: biochemical; conditions: 0.1 nM DGKα, 50 μM ATP, 20 μM DLG
Chain of DGKα (P23743 whole entry): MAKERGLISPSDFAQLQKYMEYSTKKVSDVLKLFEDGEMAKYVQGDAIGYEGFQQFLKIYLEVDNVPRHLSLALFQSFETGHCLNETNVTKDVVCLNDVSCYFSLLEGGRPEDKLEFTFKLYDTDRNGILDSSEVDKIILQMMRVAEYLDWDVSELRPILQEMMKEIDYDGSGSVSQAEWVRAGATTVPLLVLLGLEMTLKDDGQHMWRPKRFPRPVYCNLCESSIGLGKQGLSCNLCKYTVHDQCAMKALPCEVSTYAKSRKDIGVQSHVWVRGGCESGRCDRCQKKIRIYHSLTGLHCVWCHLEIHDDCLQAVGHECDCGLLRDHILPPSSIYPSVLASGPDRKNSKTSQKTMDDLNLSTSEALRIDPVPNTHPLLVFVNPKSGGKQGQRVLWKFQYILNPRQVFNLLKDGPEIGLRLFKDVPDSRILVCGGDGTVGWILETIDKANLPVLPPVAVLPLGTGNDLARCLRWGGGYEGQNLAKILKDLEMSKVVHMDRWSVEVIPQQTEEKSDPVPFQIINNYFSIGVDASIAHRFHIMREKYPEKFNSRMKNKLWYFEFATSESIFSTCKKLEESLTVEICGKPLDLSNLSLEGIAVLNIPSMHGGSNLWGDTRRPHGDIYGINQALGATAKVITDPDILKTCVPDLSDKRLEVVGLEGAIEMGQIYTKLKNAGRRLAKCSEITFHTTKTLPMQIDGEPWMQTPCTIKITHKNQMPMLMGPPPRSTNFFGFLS
Procedure: as §1, §2

`C[C@@H]1CN(c2nc3nncn3c3c2ncn3CCN(C)C)[C@@H](C)CN1C(c1ccc(F)cc1)c1ccc(F)cc1` [Example 24, 2-(4-((2S,5R)-4-(Bis(4-fluorophenyl)methyl)-2,5-dimethylpiperazin-1-yl)-1H-[1,2,4]triazolo[3,4-b]purin-1-yl)-N,N-dimethylethane-1-amine] was tested, and the “TGI, combined with anti-PD-1 mAb, vs anti-PD-1 control group” value ([1]; 30 mg/kg Compound 3 QD and 250 μg/mouse RMP1-14) was “statistically significant; also recorded: significant TGI”, the “TGI vs vehicle control group” value ([1]; all groups treated with Compound 3: 10 or 30 mg/kg QD, alone or with 250 μg/mouse RMP1-14) was “Tumor growth inhibition of Compound 3 was observed for all groups; also recorded: statistically significant TGI” and the IC50 (DGKζ) was no more than 20 nM. It also gave an IC50 (DGKα) of no more than 20 nM.
